# Laboratory results taken from PMC9234961 (Journal of Medicinal Chemistry, 2022).
# What was measured:
# nAChR(a4/b2) = nAChR(a4/b2) (Homo sapiens, UniProt P17787+P43681); test: SAFETYScan Ion Channel, Blocker; assay type: cell-based
# Excerpt: (§1) Supplement jm1c02175_si_002.xlsx, sheet "SAFETYScan" | column: RC50 (uM); Max Response
# hERG = hERG (Homo sapiens, UniProt Q12809); test: SAFETYScan Ion Channel, Blocker; assay type: cell-based
# Excerpt: as §1
# KvLQT1/minK = KvLQT1/minK (Homo sapiens, UniProt P51787); test: SAFETYScan Ion Channel, Blocker; assay type: cell-based
# Excerpt: as §1
# GABAA = GABAA (Homo sapiens, UniProt P14867+P18507+P47870); test: SAFETYScan Ion Channel, Blocker; assay type: cell-based; conditions: read-out: Max Response
# Excerpt: as §1
# NMDAR (1A/2B) = NMDAR (1A/2B) (Homo sapiens, UniProt Q05586+Q13224); test: SAFETYScan Ion Channel, Blocker; assay type: cell-based
# NMDAR (1A/2B), sequence (Q13224 27-1484, other chains not shown): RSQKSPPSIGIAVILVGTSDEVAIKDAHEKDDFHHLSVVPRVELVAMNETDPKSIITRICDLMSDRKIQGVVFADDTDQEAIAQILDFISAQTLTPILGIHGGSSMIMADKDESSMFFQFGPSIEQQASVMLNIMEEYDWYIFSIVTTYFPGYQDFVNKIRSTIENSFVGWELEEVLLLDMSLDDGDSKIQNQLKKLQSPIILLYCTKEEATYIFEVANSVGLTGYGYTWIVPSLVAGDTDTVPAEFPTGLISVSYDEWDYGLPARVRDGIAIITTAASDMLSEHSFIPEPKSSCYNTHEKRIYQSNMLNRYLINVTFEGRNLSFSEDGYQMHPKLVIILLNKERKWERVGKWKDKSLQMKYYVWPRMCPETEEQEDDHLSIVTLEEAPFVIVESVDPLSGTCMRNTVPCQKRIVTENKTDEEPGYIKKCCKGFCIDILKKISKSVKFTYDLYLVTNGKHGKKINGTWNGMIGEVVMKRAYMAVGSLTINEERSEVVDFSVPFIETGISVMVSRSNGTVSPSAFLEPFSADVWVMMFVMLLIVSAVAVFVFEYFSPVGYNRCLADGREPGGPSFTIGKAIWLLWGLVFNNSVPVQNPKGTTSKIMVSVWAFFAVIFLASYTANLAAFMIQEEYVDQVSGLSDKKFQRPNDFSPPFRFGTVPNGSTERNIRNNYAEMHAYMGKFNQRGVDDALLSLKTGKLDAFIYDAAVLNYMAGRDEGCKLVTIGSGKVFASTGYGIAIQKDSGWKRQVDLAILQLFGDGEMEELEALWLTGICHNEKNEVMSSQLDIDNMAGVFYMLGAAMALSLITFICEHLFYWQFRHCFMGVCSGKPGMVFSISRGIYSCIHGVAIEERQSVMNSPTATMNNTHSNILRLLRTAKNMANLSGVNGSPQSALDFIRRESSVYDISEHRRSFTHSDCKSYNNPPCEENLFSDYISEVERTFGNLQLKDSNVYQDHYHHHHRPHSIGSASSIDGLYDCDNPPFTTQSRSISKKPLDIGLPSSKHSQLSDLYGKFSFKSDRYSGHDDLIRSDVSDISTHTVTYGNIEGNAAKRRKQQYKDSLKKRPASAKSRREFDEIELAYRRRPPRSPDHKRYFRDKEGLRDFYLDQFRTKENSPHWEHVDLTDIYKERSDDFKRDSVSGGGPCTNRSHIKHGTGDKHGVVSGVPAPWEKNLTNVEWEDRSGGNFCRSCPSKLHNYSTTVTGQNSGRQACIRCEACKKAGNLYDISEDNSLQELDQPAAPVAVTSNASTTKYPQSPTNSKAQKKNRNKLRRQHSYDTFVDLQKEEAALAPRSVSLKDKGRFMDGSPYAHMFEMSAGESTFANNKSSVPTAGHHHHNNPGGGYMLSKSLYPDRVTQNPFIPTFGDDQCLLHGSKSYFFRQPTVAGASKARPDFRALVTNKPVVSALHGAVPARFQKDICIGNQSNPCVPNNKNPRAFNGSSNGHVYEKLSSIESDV
# Excerpt: as §1
# NAV1.5 = NAV1.5 (Homo sapiens, UniProt Q14524); test: SAFETYScan Ion Channel, Blocker; assay type: cell-based
# NAV1.5, sequence (Q14524 whole entry): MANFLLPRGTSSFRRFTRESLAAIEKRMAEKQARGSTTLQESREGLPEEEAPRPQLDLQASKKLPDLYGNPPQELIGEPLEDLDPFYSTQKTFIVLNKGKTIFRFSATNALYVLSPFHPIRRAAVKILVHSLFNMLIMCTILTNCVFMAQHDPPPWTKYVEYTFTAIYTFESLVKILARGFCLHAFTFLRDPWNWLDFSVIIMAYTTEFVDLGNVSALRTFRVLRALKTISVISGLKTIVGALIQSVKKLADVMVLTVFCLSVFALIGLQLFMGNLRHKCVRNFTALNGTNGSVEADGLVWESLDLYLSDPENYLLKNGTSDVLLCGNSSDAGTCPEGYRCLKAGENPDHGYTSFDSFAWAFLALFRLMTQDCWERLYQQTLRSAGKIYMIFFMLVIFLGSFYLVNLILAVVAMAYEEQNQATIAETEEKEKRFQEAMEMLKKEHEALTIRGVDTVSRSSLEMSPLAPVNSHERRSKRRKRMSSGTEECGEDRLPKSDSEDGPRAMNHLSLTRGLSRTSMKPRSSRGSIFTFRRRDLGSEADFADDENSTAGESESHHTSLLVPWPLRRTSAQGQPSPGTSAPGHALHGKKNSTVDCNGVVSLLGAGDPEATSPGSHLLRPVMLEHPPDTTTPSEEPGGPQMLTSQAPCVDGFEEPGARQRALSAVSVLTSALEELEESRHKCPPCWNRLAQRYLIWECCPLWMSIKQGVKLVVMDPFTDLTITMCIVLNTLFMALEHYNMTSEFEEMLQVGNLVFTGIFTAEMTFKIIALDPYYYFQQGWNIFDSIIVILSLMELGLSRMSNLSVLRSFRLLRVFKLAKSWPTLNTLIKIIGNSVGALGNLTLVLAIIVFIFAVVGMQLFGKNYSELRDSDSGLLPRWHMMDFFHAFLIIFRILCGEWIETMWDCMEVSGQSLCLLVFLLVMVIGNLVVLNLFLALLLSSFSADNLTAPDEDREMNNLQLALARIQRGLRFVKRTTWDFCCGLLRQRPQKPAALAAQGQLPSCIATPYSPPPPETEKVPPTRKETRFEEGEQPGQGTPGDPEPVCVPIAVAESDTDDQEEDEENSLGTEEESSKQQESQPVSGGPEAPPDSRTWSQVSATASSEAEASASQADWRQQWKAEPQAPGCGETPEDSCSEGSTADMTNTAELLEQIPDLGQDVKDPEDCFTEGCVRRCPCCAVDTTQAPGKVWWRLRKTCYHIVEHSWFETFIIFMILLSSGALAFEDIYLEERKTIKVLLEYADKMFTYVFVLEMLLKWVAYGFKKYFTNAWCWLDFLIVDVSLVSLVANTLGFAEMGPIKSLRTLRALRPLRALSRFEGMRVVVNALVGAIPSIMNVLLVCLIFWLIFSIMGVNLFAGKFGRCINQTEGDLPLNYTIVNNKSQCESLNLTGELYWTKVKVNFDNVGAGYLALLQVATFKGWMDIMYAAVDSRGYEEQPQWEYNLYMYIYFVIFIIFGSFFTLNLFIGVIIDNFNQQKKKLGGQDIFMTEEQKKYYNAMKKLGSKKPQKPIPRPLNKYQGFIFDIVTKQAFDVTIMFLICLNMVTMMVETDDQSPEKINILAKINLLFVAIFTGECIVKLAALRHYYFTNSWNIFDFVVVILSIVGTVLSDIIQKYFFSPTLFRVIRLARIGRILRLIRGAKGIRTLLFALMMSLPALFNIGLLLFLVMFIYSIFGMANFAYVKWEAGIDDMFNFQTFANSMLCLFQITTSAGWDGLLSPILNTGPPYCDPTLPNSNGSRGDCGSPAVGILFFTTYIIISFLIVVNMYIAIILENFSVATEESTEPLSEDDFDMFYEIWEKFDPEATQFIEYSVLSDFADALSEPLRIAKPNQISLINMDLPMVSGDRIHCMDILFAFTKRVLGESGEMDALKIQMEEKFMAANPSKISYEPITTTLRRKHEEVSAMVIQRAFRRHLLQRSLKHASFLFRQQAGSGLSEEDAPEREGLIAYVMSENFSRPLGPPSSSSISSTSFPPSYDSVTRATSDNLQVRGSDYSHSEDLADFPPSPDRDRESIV
# Excerpt: as §1
# HTR3A = target: T1, HTR3A (Homo sapiens, UniProt P46098); test: SAFETYScan Ion Channel, Blocker; assay type: cell-based
# T1 sequence (P46098 24-478): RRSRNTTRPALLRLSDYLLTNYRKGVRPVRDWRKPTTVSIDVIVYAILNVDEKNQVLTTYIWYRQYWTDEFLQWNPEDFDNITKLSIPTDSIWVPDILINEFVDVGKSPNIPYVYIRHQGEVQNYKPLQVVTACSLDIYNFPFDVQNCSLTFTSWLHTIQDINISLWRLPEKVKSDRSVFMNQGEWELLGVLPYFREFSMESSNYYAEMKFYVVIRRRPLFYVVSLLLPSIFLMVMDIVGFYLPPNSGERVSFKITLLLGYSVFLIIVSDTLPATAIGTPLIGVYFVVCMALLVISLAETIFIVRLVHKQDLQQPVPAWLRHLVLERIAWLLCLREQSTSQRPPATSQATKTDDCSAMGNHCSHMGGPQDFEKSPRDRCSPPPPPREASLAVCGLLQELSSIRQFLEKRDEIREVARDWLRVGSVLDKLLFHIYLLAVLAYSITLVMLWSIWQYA
# Excerpt: as §1
# CAV1.2 = CAV1.2 (Homo sapiens, UniProt Q13936); test: SAFETYScan Ion Channel, Blocker; assay type: cell-based
# Excerpt: as §1
# OCI-Ly1 = test: Cell proliferation assay (14 days), OCI-Ly1
# Description: (§2) Cells were seeded in 96-well culture plates at a density of 2500 cells/well in RPMI-1640 medium (Sigma-
# (§3) Aldrich) supplemented with 10% FBS (Gibco). Compounds were initially dispensed into 96-well U-bottom
# (§4) plates using an Echo 550 acoustic dispenser (Labcyte Inc.), then diluted in RPMI-1640 medium and
# (§5) transferred onto the cells. Cells were treated with 8 compound concentrations in duplicate, ranging from
# (§6) with compound for 14 days, with medium changes at days 3, 7 and 10 carried out as follows: fresh 96-well
# (§7) cell culture plates were prepared containing 100 µl medium plus compound at the assay concentrations
# (§8) (white plates were used on day 10 to optimise luminescence measurement). Assay plates containing cells
# (§9) were vortexed to mix and cell density in one control well was counted using a Coulter Z2 cell counter
# (§10) (Beckman Coulter). The volume of medium containing 2500 cells in the control well was calculated and this volume of cells was transferred from every well of the assay plates to the corresponding well of the fresh plates containing compound. After 14 days, CellTiter Glo reagent (Promega) was added to the medium in each well of the assay plate at a ratio of 1:2, mixed on a plate shaker, then incubated at room temperature for 10 minutes. Luminescence was measured using an Envision plate reader (Perkin Elmer) and the relative luminescence at each compound concentration, compared to DMSO alone, was calculated. GI50 were determined using a 4-parameter curve fit in Dotmatics (Bishops Stortford, UK).
# CCKAR = target: T2, CCKAR (Homo sapiens, UniProt P32238); test: SAFETYScan GPCR Calcium Flux, Agonist; assay type: cell-based
# T2 sequence (P32238 1-428): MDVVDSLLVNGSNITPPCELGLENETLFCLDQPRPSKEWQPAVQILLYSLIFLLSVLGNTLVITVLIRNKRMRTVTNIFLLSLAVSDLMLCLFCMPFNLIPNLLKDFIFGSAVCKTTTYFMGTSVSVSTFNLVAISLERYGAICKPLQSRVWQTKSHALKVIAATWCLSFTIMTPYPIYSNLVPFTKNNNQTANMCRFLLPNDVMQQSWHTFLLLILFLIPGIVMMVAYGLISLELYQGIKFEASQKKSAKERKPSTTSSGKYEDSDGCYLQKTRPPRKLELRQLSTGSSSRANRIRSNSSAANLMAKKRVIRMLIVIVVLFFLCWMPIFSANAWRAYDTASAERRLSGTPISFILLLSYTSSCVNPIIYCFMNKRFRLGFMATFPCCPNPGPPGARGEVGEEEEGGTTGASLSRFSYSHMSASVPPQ
# Excerpt: as §1
# HTR2B = target: T3, HTR2B (Homo sapiens, UniProt P41595); test: SAFETYScan GPCR Calcium Flux, Agonist; assay type: cell-based
# T3 construct: expressed in transfected cells
# T3 sequence (P41595 whole entry): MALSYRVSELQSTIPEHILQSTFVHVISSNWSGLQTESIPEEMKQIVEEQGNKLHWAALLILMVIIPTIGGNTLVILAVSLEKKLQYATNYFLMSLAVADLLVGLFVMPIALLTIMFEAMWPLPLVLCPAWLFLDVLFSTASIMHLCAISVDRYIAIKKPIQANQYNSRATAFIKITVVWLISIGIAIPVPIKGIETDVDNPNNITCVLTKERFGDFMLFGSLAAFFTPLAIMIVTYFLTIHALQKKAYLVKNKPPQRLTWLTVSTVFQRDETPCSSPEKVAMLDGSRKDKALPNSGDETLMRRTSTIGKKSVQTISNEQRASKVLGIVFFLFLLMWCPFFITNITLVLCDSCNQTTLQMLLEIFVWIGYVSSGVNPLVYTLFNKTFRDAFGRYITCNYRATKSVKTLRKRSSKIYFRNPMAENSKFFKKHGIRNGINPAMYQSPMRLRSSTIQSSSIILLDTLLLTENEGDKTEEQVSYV
# Excerpt: as §1
# ADRA1A = target: T4, ADRA1A (Homo sapiens, UniProt P35348); test: SAFETYScan GPCR Calcium Flux, Agonist; assay type: cell-based
# T4 sequence (P35348 1-466): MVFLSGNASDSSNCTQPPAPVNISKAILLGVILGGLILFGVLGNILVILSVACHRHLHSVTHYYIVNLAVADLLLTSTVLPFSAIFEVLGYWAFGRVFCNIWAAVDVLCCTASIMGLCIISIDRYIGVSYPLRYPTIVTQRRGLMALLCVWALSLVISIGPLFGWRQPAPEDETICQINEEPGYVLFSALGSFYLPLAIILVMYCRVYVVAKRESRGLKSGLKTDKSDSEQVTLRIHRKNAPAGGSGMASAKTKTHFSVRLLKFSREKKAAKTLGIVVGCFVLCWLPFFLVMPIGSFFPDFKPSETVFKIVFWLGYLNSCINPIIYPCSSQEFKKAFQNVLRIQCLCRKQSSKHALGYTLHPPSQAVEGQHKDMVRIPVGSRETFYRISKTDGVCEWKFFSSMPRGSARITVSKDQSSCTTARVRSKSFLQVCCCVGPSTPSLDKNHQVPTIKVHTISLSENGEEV
# Excerpt: as §1
# HRH1 = HRH1 (Homo sapiens, UniProt P35367); test: SAFETYScan GPCR Calcium Flux, Agonist; assay type: cell-based
# HRH1, sequence (P35367 whole entry): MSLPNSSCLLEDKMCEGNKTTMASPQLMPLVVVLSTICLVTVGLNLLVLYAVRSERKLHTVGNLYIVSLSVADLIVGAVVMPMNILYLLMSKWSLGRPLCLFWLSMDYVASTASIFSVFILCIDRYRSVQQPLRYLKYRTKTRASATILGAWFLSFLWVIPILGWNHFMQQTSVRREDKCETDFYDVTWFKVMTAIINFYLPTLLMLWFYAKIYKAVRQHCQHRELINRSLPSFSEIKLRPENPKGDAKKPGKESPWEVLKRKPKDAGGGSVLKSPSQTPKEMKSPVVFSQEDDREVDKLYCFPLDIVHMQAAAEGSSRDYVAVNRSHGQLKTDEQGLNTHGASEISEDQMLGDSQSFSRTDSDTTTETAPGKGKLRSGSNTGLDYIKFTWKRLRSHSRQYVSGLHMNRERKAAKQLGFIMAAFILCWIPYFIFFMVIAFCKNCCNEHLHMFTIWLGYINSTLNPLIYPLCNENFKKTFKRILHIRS
# Excerpt: as §1
# EDNRA = target: T5, EDNRA (Homo sapiens, UniProt P25101); test: SAFETYScan GPCR Calcium Flux, Agonist; assay type: cell-based
# T5 sequence (P25101 21-427): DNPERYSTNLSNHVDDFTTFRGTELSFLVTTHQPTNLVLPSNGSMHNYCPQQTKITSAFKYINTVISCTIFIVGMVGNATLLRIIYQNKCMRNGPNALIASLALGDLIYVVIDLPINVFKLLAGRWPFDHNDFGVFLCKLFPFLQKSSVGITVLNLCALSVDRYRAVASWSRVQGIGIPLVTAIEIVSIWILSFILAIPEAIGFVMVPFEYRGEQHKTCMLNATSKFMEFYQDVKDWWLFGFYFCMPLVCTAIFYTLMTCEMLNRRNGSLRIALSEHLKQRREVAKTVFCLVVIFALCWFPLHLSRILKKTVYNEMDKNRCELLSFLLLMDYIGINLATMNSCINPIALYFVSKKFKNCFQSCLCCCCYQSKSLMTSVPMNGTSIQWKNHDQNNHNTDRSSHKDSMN
# Excerpt: as §1
# in vitro = in vitro ADME; conditions: bovine; fraction unbound in OCI-Ly1 DC50 assay medium; read-out: fu,media
# Karpas 422 = test: Cell proliferation assay (14 days), Karpas 422
# Description: as §2, §3, §4, §5, §6, §7, §8, §9, §10
compound,measurement,setting,value
"C[C@H]1C[C@@H](O)CN(c2ncc(Cl)c(Nc3ccc4c(c3)c3c(c(=O)n4C)OCC(F)(F)[C@H](C4CC4)N3)n2)C1 [12a CCT373566, (S)-10-((5-Chloro-2-((3R,5S)-3-hydroxy-5-methylpiperidin-1-yl)pyrimidin-4-yl)amino)-2-cyclopropyl-3,3-difluoro-7-methyl-1,2,3,4-tetrahydro-[1,4]oxazepino[2,3-c]quinolin-6(7H)-one]",Emax,nAChR(a4/b2); read-out: Max Response,7.49%
same,IC50,nAChR(a4/b2); read-out: RC50 (IC50),> 10 µM
same,Emax,"hERG; human, read-out: Max Response",93%
same,IC50,hERG; read-out: RC50 (IC50),1.44 µM
same,Emax,KvLQT1/minK; read-out: Max Response,13.1%
same,IC50,KvLQT1/minK; read-out: RC50 (IC50),> 10 µM
same,Emax,GABAA,1.51%
same,Emax,NMDAR (1A/2B); read-out: Max Response,0%
same,IC50,NMDAR (1A/2B); read-out: RC50 (IC50),> 10 µM
same,Emax,NAV1.5; read-out: Max Response,1.35%
same,IC50,NAV1.5; read-out: RC50 (IC50),> 10 µM
same,Emax,HTR3A; read-out: Max Response,15%
same,IC50,HTR3A; read-out: RC50 (IC50),> 10 µM
same,Emax,CAV1.2; read-out: Max Response,0%
same,IC50,CAV1.2; read-out: RC50 (IC50),> 10 µM
same,OCI-Ly1 GI50,OCI-Ly1; 14-day proliferation assay,Very potent growth inhibition
same,GI50,"OCI-Ly1; Homo sapiens, OCI-Ly1, 336 h, read-out: OCI-Ly1 GI50",0.0021 µM
same,Emax,CCKAR; read-out: Max Response,2.17%
same,EC50,CCKAR; read-out: RC50 (EC50),> 10 µM
same,Emax,HTR2B; read-out: Max Response,1.98%
same,EC50,HTR2B; read-out: RC50 (EC50),> 10 µM
same,Emax,ADRA1A; read-out: Max Response,5.05%
same,EC50,ADRA1A; read-out: RC50 (EC50),> 10 µM
same,Emax,HRH1; read-out: Max Response,1.78%
same,EC50,HRH1; read-out: RC50 (EC50),> 10 µM
same,Emax,EDNRA; read-out: Max Response,0.25%
same,EC50,EDNRA; read-out: RC50 (EC50),> 10 µM
same,fraction unbound,in vitro,0.13
same,Karpas 422 GI50,Karpas 422; 14-day proliferation assay,Very potent growth inhibition
same,GI50,"Karpas 422; Homo sapiens, KARPAS-422, 336 h, read-out: Karpas 422 GI50",0.0014 µM
